Test results taken from patent publication US12215106B2, “Pharmaceutical compounds and therapeutic methods” (RUTGERS, THE STATE UNIVERSITY OF NEW JERSEY, priority 2018, dated 2025).
Structures can show the parent of a compound that is named as a salt. Where two headings read alike, the source gives them in different places.

Assays:
[1] = tested on: glioblastoma patient derived spheres; experiment: MTT assay, cell viability of patient derived GBM spheres; type: cell-based; details: Homo sapiens
Text: To generate primary patient-derived GBM models for testing small molecule inhibitors, fresh primary tissues were received from patients undergoing surgical resection of WHO grade IV gliomas at Robert Wood Johnson University Hospital (RWJUH) under an approved IRB protocol. De-identified primary human GBM samples were delivered to the laboratory. Cells were obtained through mechanical dissociation of the tumor tissue using a blade and plated in DMEM/F12 medium (Gibco) in the presence of B-27 Supplement (Gibco, #17504-044), 20 ng/ml of human recombinant EGF (Gibco, #PHG0311L) and human recombinant FGF (Peprotech, #AF-100-18B). The following day, the culture was collected, incubated with Accutase (Gibco, #A11105-01) at 37° C. and passed through a 26G×⅜ needle (BD Precision Glide, #305110) to obtain a single cell suspension and re-plated in the same supplemented medium. Cells were cultured at low (5-6) passages in serum-free sphere 3D culture with mitogens that preserve the clonogenic stemness phenotype. […] different primary GBM cells (GBM #46, GBM #50, and GBM #76) were tested for cell viability after treatment with the inhibitors. Cell viability was measured using MTT assay. Briefly, one thousand cells per well were seeded in 96-well plates and exposed to drug in a total of 200 uL media. After 72 hours, 50 uL of stock concentration of 2.5 mg/mL 3-(4,5-dimethylthiazol-2-yl)-2,5-diphenyltetrazolium bromide (MTT) (Sigma, #M2128) dissolved in PBS was added to wells and incubated at 37° C. for 4 hours; read in a […] plate reader at 570 nm and compared to DMSO and untreated cells. The IC50 (defined as the concentration at which 50% of the cells were viable) was determined from the curve.
Novel compounds were synthesized and examined for their effectiveness on inhibiting the growth of patient derived GBM sphere cells that are more enriched in cancer stem-like cells (CSCs). An IC50 was established by measuring cell viability using a MTT assay when compared to vehicle control (DMSO) (FIG. 1-6).

STAT1 = experiment: Western blotting of STAT1 protein levels in GBM spheres; type: cell-based, human; details: 72 hours
Protocol: GBM cells were treated with DMSO or different concentrations of the test compounds for 72 hours. Cells were lysed in Cell Lysis Buffer (Cell Signaling, #9803) supplemented with Protease Inhibitor Cocktail (Sigma, #P8340), sonicated briefly while on ice and spun down for 30 minutes at 4° C., after which the supernatant was collected. For each sample, 2 uL of lysate was mixed well into 198 uL de-ionized water. Next, 10 uL of this diluted sample was added to a well in a 96 well plate in quadruplets and mixed with Protein Assay Dye Reagent Concentrate (Bio-Rad, #500-0006) (which was diluted 1:5 with water). BSA standards of 25 ng, 50 ng, 100 ng, 200 ng and 250 ng were also used to the plate and mixed with the reagent. The plate was read in a plate reader at 600 nm and samples were calibrated to the standards to determine the concentration of protein. Using the NuPAGE system (Invitrogen), 25 ug of protein was mixed with NuPAGE LDS 4× Sample Buffer (#NP0007), NuPAGE 10× Reducing Agent (#NP0004) and water, mixed well and heated at 96° C. for 15 minutes to denature the protein. The samples were then loaded into 4-12% Bis-Tris gels (Novex (Invitrogen), #0323) with a protein ladder (Novex (Invitrogen) Sharp Pre-stained protein ladder, #57318) and run at 100-120V for about 2 hours with NuPAGE 20×SDS MES Running Buffer (#NP0002) diluted with water. Next, the gel was taken out and loaded into a NuPAGE transfer cassette with a polyvinylidene membrane with NuPAGE 20× Transfer Buffer (#NP0006-1) diluted with water and methanol. Proteins were transferred for 1 hour at 30V at room temperature. Blocking was performed using the Millipore SNAP i.d. Protein Detection system in 0.25% non-fat dry milk in 0.1% Tween in PBS (PBST). […] Protein signals were detected using ECL Western Blotting Substrate (Pierce, #32106) and filmed. […]

BMI1 = experiment: Western blotting of BMI1 protein levels in GBM spheres; type: cell-based, human; details: for BMI1 levels: GBM spheres, 72 hours, Western blotting
Protocol: Different GBM cells were treated with DMSO or different concentrations of test compounds for 72 hours. Cells were lysed in Cell Lysis Buffer (Cell Signaling, #9803) supplemented with Protease Inhibitor Cocktail (Sigma, #P8340), spun down for 30 minutes at 4° C., after which the supernatant was collected at every time point indicated. Western blotting analysis was performed on all samples as described above. BMI1 loss started at 6-12 hours, coinciding with an upper shift and hyper-phosphorylation of BMI1 at 12-24 hours and complete depletion at 72 hours.
GBM cells were treated with DMSO or different concentrations of the test compounds for 72 hours. Cells were lysed in Cell Lysis Buffer (Cell Signaling, #9803) supplemented with Protease Inhibitor Cocktail (Sigma, #P8340), sonicated briefly while on ice and spun down for 30 minutes at 4° C., after which the supernatant was collected. For each sample, 2 uL of lysate was mixed well into 198 uL de-ionized water. Next, 10 uL of this diluted sample was added to a well in a 96 well plate in quadruplets and mixed with Protein Assay Dye Reagent Concentrate (Bio-Rad, #500-0006) (which was diluted 1:5 with water). BSA standards of 25 ng, 50 ng, 100 ng, 200 ng and 250 ng were also used to the plate and mixed with the reagent. The plate was read in a plate reader at 600 nm and samples were calibrated to the standards to determine the concentration of protein. Using the NuPAGE system (Invitrogen), 25 ug of protein was mixed with NuPAGE LDS 4× Sample Buffer (#NP0007), NuPAGE 10× Reducing Agent (#NP0004) and water, mixed well and heated at 96° C. for 15 minutes to denature the protein. The samples were then loaded into 4-12% Bis-Tris gels (Novex (Invitrogen), #0323) with a protein ladder (Novex (Invitrogen) Sharp Pre-stained protein ladder, #57318) and run at 100-120V for about 2 hours with NuPAGE 20×SDS MES Running Buffer (#NP0002) diluted with water. Next, the gel was taken out and loaded into a NuPAGE transfer cassette with a polyvinylidene membrane with NuPAGE 20× Transfer Buffer (#NP0006-1) diluted with water and methanol. Proteins were transferred for 1 hour at 30V at room temperature. Blocking was performed using the Millipore SNAP i.d. Protein Detection system in 0.25% non-fat dry milk in 0.1% Tween in PBS (PBST). […] Protein signals were detected using ECL Western Blotting Substrate (Pierce, #32106) and filmed.
BMI1 levels in GBM spheres were then analyzed by Western Blotting over a time-course of 120 hours upon treatment with compound 14 at 7-10 nM conc. […]

[2] = 72 h, read-out: IC50, antitumor activity against glioblastoma patient derived spheres
[3] = read-out: Potency in patient derived GBM spheres

SMILES | IC50 ([1]; MTT, 72 hours, figure legends, read-out: IC50, antitumor activity against glioblastoma patient derived spheres) [nM] | IC50 ([1]; summary data, read-out: Potency in patient derived GBM spheres) [nM] | STAT1 protein levels (STAT1) | BMI1 protein levels, time-course (BMI1; 7-10 nM, single treatment, time-course of 120 hours) | BMI1 levels (BMI1) | IC50 [1, 2] [nM] | IC50 [1, 3] [nM]
COc1c(F)cc(Nc2nc(-c3c(C)nc4ccccn34)cs2)cc1F [Compound 14, hydrochloride] | 7 | 10 | lowered STAT1 | reduction in BMI1 protein levels at 72, 96 and 120 hours | Lowered BMI1 levels | – | –
[2H]C([2H])([2H])Oc1ccc(Nc2nc(-c3c(C)nc4ccccn34)cs2)cc1 [Compound 15, N-(4-(methoxy-d3)phenyl)-4-(2-methylimidazo[1,2-c]pyridin-3-yl)thiazol-2-amine hydrochloride] | – | – | lowered STAT1 | – | slightly lowered BMI1 levels | 7 | 1000
Cc1nc2ccccn2c1-c1csc(Nc2ccc3c(c2)OC(F)(F)O3)n1 [Compound 16, N-(2,2-difluorobenzo[d][1,3]dioxol-5-yl)-4-(2-methylimidazo[1,2-a]pyridin-3-yl)thiazol-2-amine hydrochloride] | – | – | – | – | – | 200 | 10
[2H]C1([2H])Oc2ccc(Nc3nc(-c4c(C)nc5ccccn45)cs3)cc2O1 [Compound 17, N-(benzo[d][1,3]dioxol-5-yl-2,2-d2)-4-(2-methylimidazo[1,2-c]pyridin-3-yl)thiazol-2-amine hydrochloride] | – | – | lowered STAT1 | – | Lowered BMI1 levels | 20 | 10
